Consider five molecules from US20100222304A1, “Methods of Treating Neuropathic Pain by Modulation of Glycogenolysis or Glycolysis” (priority 2006, published 2010).

Like-named read-outs stand apart in the source and are kept apart here.

Broadly, the EC50 is the concentration needed to bring the measured effect to its halfway point.

For data set [1], the system named is human hepatocytes. To be noted: human primary hepatocytes; read-out: EC50, inhibition of glucose production; cited from earlier work.
Another data set deals with gluconeogenesis. To be noted: rat hepatocytes, isolated rat kidneys, whole animal studies; cited from earlier work.
A further data set deals with cynomolgus monkeys. The note with it: cited from earlier work.
A further data set deals with goto-kakizaki (GK) rats. The note with it: cited from earlier work.
The subject of another data set is overnight fasted rats. The note with it: 2.5 to 40 mg/kg 1 h before liquid meal 20 kcal/kg; effect at doses over 10 mg/kg; cited from earlier work.
The subject of the next data set is Female ZDF rats. To be noted: 100 mg/kg/day, 14 days; cited from earlier work.
Data set [2] concerns Zucker diabetic fatty (ZDF) rats. The note with it: cited from earlier work; for glucose tolerance: CS-917 300 mg/kg and/or glyburide 100 mg/kg orally, 90 min before 2 g/kg glucose, 3 h following; for insulin secretion: CS-917 300 mg/kg, glyburide 100 mg/kg orally.
In the next data set the test system is ZDF rats. The note with it: cited from earlier work.
The next data set relates to patients. The note with it: first 6 h after dosing on day 14, versus day before first dose; cited from earlier work.
The conditions of data set [3]: cited from earlier work.
The conditions of data set [4]: one oral suspension dose 2.5 to 1000 mg after overnight fast; cited from earlier work.
The conditions of data set [5]: oral capsules 100, 200, 400 or 800 mg, 14 days; cited from earlier work.
The next data set concerns Tet/GSK-3-beta mice. The note with it: cited from earlier work; for tau phosphorylation in the hippocampus: oral, 3 weeks, NP-01139 50 to 100 mg/kg/day, NP-12 100 to 200 mg/kg/day; for clinical signs: prolonged oral treatment.
The next data set has as its system Male Sprague-Dawley rats. Nature of the data set: Mechanical allodynia induced by spinal nerve ligation (SNL) in rats. The note with it: 30 mg/kg PO, post-SNL day 19, p<0.01 vs. vehicle. The class given is in vivo, rat. On the procedure:
Male Sprague-Dawley rats (Hsd:Sprague-Dawley®SD®, Harlan, Indianapolis, Ind., U.S.A.) weighing 223±2 g on Day 14 were housed three per cage. Animals had free access to food and water and were maintained on a 12:12 h light/dark schedule for the entire duration of the study. The animal colony was maintained at 21° C. and 60% humidity. All experiments were conducted in accordance with the International Association for the Study of Pain guidelines and were approved by the University of Minnesota Animal Care and Use Committee.
The Spinal Nerve Ligation (SNL) model was used to induce chronic neuropathic pain. […]
Baseline, post-injury and post-treatment values for non-noxious mechanical sensitivity were evaluated using 8 Semmes-Weinstein filaments (Stoelting, Wood Dale, Ill., USA) with varying stiffness (0.4, 0.7, 1.2, 2.0, 3.6, 5.5, 8.5, and 15 g) according to the up-down method. […] The mean and standard error of the mean (SEM) were determined for each paw in each treatment group. […]
Statistical analyses were conducted using Prism™ 4.01 (GraphPad, San Diego, Calif., USA). Mechanical hypersensitivity of the injured paw was determined by comparing pre-SNL to post-SNL values at Day 14. Data were analyzed using the Wilcoxon test. […] Drug effect was analyzed by comparing post-vehicle and post-drug values using the Friedman test followed by a Dunn's post hoc test. […]

Data set [6] deals with human hepatocytes. To be noted: read-out: EC50, reduction of glucagon-induced glycogenolysis; cited from earlier work.
In the next data set the test system is rat hepatocytes. To be noted: read-out: EC50, reduction of glucagon-induced glycogenolysis; cited from earlier work.
The conditions of data set [7]: rats; cited from earlier work.
The subject of the next data set is healthy conscious rats. The note with it: glucagon 10 microg/kg iv; cited from earlier work.
The subject of a further data set is ob/ob mice. To be noted: 30 mg/kg po, cited from earlier work.
For data set [8], the system named is db/db mice. The note with it: cited from earlier work.
For data set [9], the system named is db/db mice. The note with it: 60 mg/kg po qd, 9 days; cited from earlier work.
For data set [10] the following is noted: single and multiple dose escalation; cited from earlier work.
The mark [11] stands for this setting: chronic 21-day study, 10-week old ZDF rats.
[12] abbreviates: 50, 100, 200 or 400 mg qd, 14 days.

Turning to `CCOC(=O)[C@H](C)NP(=O)(N[C@@H](C)C(=O)OCC)c1ccc(-c2nc(N)sc2CC(C)C)o1` [CS-917], the 50% effective concentration (EC50) in the data set with human hepatocytes [1] is 300 nM. Further, the gluconeogenesis result in the data set with gluconeogenesis is given as “inhibit gluconeogenesis”. In addition, the plasma glucagons levels result with cynomolgus monkeys (60 mg/kg) was “increased”. The insulin levels entry in the data set on cynomolgus monkeys (20 to 60 mg/kg, 3 h after administration) was “dose-dependently decreased”. In addition, the plasma glucagons result with goto-kakizaki (GK) rats (40 mg/kg) is recorded as “increased”. For the same molecule, the plasma glucose levels result with goto-kakizaki (GK) rats (5 to 40 mg/kg, 3 h after administration) is on record as “dose-dependently decreased”. In addition, the “hepatic fructose 1,6-bisphosphate and fructose 6-phosphate” value in the data set with goto-kakizaki (GK) rats (20 and 40 mg/kg, 4 h after administration) is listed as “increased”. Further, the “AUC values of plasma glucose levels” value with overnight fasted rats was “significantly dose dependently decreased”. Moreover, in the data set with Female ZDF rats, the “hyperglycemia (blood glucose)” value was 166 ± 24 mg/dL; the “insulin levels, blood lactate, liver glycogen and liver triglycerides” value is given as “largely unaffected”; the plasma triglycerides entry is “tended to be lowered”; the polydipsia is 15 ± 6.2 mL/day. In data set [2], the glucose tolerance entry is given as “improved glucose tolerance” and the insulin secretion entry was “No stimulation of insulin secretion”. In addition, in the data set on ZDF rats (setting [11]), the glucose lowering result is given as “effectively lowered glucose” and the “minimum efficacious dose, glucose lowering” value was 30 mg/kg. Also, the oral efficacy result in the data set on ZDF rats (freely feeding and 6-h fasting ZDF rats, early and advanced disease states) is recorded as “good oral efficacy”. Besides, the blood glucose levels entry with patients is “lower blood glucose levels”. Also, the “lactic acid AUC compared with placebo” value in data set [3] (400 mg dose) was “increased”. In data set [3] (setting [12]), the “absorption, metabolism, clearance” value is “rapidly absorbed, extensively metabolized, rapidly cleared” and the tolerability result is given as “well tolerated with no serious adverse events”. Besides, the lactic acid profiles result in data set [3] (other dose groups (50, 100, 200 mg)) is “indifferent from placebo”. Further, the tolerability result in data set [4] was “well tolerated with nausea seen at 400 mg and vomiting seen at 800 and 1000 mg”. Further, the tolerability entry in data set [5] was “well tolerated with no serious adverse events”.

As for `CC1CC(=O)C(CC2C=CC=CC2)C1=O` (centres unmarked) [NP-12], in the data set on Tet/GSK-3-beta mice, the “tau phosphorylation in the hippocampus” value is on record as “dose-dependent significant decrease” and the clinical signs result was “not showing any apparent clinical signs”.

Turning to `Cn1sc(=O)n(Cc2ccccc2)c1=O` [NP-01139], in the data set with Tet/GSK-3-beta mice, the “tau phosphorylation in the hippocampus” value is given as “dose-dependent significant decrease” and the clinical signs entry is recorded as “not showing any apparent clinical signs”.

In the case of `O=C(N[C@@H](Cc1ccc(F)cc1)C(=O)N1CCC(O)CC1)c1cc2cc(Cl)ncc2[nH]1` [PSN-357], in the data set with Male Sprague-Dawley rats, the “mechanical allodynia (von Frey, up-down method)” value was “reduced mechanical allodynia”. In addition, the EC50 with human hepatocytes [6] was 1100 nM. Also, the EC50 in the data set with rat hepatocytes is 1900 nM. The t1/2 in [7] is 4 h. In addition, the “minimum effective dose, inhibition of glucagon-stimulated elevation of blood glucose” value in the data set on healthy conscious rats was 3 mg/kg. Besides, in the data set on ob/ob mice (90 to 210 minutes post administration), the blood glucose levels entry is on record as “reduced blood glucose levels”. In addition, the “increase in liver glycogen” value with ob/ob mice (after 5 h) is reported as 66%. Moreover, in the data set on db/db mice [8] (after 5 h), the “heart and skeletal muscle glycogen” value is “remained unaffected”; the liver glycogen entry is on record as “increase in liver glycogen”. For the same molecule, the “reduction of blood glucose” value in the data set with db/db mice [8] (maintained after 5 h) is 35%. In addition, in the data set with db/db mice [9], the hyperglycemia result was “prevented hyperglycemia”; the “increase in liver glycogen” value was 57%; the “muscle glycogen, plasma insulin or alanine aminotransferase” value was “no changes”. The safety and tolerability entry in [10] is “safe and well tolerated”.

`COc1ccc(Cl)cc1C(=O)NCCc1ccc(S(=O)(=O)NC(=O)NC2CCCCC2)cc1` [glyburide]: in data set [2], the glucose tolerance entry is recorded as “improved glucose tolerance” and the insulin secretion entry is recorded as “positive insulin secretory response”.
